In ChEMBL document CHEMBL1201862, “PubChem BioAssay data set” (2004):
Blank lines part the entries; values can stand above or below the compound they belong to. Calls of active or inactive are those of the source.

How the values were obtained:
[1] = A549 cell cytotoxicity, dose response, cytotoxicity control, plate reader, dry powder, set 7 (AID 743318); type: functional, cell-based
[2] = P. falciparum Dd2 growth inhibitors, dose response, SYBR Green, cherry-picked samples (AID 1159567); type: functional, cell-based
[3] = HepG2 cell cytotoxicity, dose response, cytotoxicity control, plate reader, dry powder samples (AID 1159569); type: functional, cell-based;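 also: inhibitor potency with signal falling toward the positive control level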
[4] = P. falciparum ATP4 D1247Y mutant growth inhibitors, dose response, NITD609-resistant line, SYBR Green, dry powder (AID 1159571); type: functional, cell-based;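 also: parasites synchronized at ring stage by sorbitol before testing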
[5] = P. falciparum Dd2 growth inhibitors, dose response, SYBR Green, dry powder samples, set 9 (AID 1159568); type: functional, cell-based
[6] = Plasmodium falciparum Dd2 Sybr green parasite growth Measured in Cell-Based and Microorganism Combination System Using Plate Reader - 2153-01_Inhibitor_Dose_DryPowder_Activity_Set3.; type: functional
[7] = P. falciparum 3D7-ScDHODH growth inhibitors, dose response, SYBR Green, dry powder samples (AID 1159570); type: functional, cell-based;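 also: parasite growth measured after 72 hours of compound exposure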
[8] = P. falciparum Dd2 growth inhibitors, dose response, SYBR Green, dry powder samples (AID 1159566); type: functional, cell-based;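 also: potency for growth inhibition with lower SYBR green DNA signal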
[9] = target: Photoreceptor-specific nuclear receptor (Homo sapiens, UniProt Q9Y5X4); assay: NR2E3 inverse agonists, dose response, biochemical, TR-FRET (AID 463256); type: functional
Sequence of Photoreceptor-specific nuclear receptor (Q9Y5X4 whole entry): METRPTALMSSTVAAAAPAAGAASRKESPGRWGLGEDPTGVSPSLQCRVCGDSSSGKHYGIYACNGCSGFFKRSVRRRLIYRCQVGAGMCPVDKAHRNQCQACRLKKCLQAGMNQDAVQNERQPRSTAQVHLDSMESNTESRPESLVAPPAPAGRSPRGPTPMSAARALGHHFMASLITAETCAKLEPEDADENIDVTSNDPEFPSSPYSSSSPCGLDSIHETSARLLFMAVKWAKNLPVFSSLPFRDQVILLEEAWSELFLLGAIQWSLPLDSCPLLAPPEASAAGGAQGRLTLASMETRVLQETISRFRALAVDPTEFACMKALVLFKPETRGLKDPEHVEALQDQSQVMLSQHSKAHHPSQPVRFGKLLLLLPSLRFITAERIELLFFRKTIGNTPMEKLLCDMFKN

[10] = target: Peroxisome proliferator-activated receptor gamma/Nuclear receptor corepressor 2 (Homo sapiens, UniProt P37231+Q9Y618); assay: Counterscreen for NR2E3 inverse agonists: TR-FRET-based biochemical high throughput dose response assay to identify inverse agonists of the interaction between peroxisome proliferator-activated receptor gamma (PPARg) and nuclear receptor co-repressor 2 (NCOR2).; type: functional
Sequence of Peroxisome proliferator-activated receptor gamma/Nuclear receptor corepressor 2 (P37231 whole entry): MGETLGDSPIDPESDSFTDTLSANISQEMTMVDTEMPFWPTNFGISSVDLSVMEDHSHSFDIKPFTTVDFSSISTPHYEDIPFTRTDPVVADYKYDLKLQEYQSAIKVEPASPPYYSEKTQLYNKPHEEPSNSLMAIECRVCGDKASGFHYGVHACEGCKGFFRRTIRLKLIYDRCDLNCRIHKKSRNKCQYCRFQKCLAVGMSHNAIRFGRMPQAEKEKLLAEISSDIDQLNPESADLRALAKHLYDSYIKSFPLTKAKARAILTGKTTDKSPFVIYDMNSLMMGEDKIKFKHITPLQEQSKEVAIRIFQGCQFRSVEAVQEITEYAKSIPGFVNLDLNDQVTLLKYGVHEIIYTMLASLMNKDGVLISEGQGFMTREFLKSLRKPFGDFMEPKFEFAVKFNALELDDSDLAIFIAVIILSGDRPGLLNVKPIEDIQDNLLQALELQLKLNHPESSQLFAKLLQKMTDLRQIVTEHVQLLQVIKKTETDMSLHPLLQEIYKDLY
Sequence of Peroxisome proliferator-activated receptor gamma/Nuclear receptor corepressor 2 (Q9Y618 whole entry): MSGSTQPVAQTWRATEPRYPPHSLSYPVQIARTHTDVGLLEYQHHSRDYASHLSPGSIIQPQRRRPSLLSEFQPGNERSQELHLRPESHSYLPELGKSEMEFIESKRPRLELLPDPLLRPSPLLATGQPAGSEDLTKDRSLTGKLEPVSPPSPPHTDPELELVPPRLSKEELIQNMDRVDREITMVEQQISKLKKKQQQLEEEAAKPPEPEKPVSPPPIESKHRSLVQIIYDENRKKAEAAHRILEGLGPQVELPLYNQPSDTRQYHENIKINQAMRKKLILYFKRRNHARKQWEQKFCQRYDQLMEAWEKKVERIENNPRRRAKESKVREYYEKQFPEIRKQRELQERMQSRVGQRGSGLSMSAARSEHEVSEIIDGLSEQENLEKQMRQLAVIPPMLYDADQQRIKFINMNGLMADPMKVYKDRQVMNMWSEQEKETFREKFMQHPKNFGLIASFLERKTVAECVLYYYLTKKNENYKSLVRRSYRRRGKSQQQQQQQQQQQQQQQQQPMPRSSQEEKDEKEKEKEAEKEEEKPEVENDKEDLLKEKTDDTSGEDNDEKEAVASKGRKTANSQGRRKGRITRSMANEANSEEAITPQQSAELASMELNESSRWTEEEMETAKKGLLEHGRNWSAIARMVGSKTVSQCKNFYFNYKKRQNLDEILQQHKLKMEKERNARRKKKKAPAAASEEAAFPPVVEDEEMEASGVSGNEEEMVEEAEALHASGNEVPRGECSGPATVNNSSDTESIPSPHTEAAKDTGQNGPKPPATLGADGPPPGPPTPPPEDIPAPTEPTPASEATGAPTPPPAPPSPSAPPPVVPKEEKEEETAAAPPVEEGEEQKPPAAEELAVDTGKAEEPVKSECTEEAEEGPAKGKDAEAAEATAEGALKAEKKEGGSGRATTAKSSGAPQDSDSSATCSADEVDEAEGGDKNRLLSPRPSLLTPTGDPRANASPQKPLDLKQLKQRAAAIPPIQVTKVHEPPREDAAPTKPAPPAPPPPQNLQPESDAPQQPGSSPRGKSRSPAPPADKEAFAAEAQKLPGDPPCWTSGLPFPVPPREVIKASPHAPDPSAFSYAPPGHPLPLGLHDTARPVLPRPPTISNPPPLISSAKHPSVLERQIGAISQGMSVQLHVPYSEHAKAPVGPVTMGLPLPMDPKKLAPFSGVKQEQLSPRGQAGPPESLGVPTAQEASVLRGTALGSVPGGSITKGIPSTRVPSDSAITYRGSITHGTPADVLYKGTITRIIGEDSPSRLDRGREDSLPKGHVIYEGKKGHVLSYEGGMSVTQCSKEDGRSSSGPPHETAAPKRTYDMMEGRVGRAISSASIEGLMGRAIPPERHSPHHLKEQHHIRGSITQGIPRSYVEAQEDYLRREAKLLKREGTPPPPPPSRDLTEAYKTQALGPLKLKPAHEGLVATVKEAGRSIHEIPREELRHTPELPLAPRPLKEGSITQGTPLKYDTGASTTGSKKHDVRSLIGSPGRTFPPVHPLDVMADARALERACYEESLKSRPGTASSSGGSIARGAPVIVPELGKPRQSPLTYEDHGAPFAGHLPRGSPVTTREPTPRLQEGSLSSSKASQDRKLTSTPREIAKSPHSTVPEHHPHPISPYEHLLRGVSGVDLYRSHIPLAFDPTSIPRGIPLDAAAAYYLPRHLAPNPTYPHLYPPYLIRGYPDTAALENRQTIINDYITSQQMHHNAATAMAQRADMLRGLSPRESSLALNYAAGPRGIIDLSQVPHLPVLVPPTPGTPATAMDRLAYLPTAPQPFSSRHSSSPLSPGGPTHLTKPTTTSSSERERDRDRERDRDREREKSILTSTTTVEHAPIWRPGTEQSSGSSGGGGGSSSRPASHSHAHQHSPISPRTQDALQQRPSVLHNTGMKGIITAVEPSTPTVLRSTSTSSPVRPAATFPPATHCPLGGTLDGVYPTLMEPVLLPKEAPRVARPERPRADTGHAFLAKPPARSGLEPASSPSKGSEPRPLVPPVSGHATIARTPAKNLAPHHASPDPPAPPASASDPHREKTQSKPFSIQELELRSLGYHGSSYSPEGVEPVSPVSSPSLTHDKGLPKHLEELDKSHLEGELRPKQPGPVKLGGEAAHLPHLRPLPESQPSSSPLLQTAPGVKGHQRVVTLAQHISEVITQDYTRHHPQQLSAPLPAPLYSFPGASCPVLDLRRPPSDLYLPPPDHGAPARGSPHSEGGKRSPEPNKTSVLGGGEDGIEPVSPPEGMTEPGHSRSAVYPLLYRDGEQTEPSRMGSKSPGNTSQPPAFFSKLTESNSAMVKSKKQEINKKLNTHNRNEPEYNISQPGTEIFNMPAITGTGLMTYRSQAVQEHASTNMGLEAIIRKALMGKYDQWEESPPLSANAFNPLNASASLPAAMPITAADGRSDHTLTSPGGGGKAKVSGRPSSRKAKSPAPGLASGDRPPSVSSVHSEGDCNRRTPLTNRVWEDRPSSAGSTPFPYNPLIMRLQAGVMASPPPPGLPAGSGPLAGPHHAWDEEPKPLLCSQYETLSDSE

[11] = target: Solute carrier family 12 member 2/member 5 (Homo sapiens, UniProt P55011+Q9H2X9); assay: KCC2 and NKCC1 inhibition by rubidium flux, cell-based, NKCC1 counter-screen (AID 1734); type: functional, HEK293
NADPH oxidase 1 = NADPH oxidase 1 (Homo sapiens, UniProt Q9Y5S8); assay: Late-stage luminescence-based cell-based dose response assay to identify inhibitors of NADPH oxidase 1 (NOX1): Synthesized analogs.; type: functional
Sequence of NADPH oxidase 1 (Q9Y5S8 whole entry): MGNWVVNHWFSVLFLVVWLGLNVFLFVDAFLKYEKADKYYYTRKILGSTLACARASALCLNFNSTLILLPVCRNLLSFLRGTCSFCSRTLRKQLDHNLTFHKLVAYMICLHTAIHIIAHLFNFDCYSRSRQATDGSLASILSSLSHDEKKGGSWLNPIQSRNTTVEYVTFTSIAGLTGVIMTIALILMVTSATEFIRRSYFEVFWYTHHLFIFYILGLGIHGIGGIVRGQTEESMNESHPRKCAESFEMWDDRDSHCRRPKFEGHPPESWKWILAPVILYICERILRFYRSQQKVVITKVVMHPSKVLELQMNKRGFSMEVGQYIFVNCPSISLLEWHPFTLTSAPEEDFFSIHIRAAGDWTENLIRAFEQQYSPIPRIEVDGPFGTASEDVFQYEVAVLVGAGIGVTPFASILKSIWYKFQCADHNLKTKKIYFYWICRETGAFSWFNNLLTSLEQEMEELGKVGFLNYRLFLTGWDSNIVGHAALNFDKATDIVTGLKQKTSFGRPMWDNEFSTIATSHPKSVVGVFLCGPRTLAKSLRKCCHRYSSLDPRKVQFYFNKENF

14-3-3 protein gamma = 14-3-3 protein gamma (Homo sapiens, UniProt P61981); assay: modulators of 14-3-3 gamma client binding – dose response (AID 711); type: functional
Sequence of 14-3-3 protein gamma (P61981 whole entry): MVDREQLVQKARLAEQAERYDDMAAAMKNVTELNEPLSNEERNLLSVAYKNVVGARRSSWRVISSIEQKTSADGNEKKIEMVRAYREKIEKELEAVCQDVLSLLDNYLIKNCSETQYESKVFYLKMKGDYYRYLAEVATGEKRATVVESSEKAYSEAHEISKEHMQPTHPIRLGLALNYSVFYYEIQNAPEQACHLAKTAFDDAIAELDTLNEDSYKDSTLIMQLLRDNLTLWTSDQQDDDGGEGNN

Danio rerio = assay: In Vivo Angiogenesis Dose-Response Confirmation. [Related pubchem assays: 732 (Assay preceding this confirmatory assay.)]; type: functional, organism-based
[12] = target: G-protein coupled receptor 183 (Homo sapiens, UniProt P32249); assay: SAR confirmation of small molecule antagonists of the EBI2 receptor via a luminescent beta-arrestin assa.; type: functional
Sequence of G-protein coupled receptor 183 (P32249 whole entry): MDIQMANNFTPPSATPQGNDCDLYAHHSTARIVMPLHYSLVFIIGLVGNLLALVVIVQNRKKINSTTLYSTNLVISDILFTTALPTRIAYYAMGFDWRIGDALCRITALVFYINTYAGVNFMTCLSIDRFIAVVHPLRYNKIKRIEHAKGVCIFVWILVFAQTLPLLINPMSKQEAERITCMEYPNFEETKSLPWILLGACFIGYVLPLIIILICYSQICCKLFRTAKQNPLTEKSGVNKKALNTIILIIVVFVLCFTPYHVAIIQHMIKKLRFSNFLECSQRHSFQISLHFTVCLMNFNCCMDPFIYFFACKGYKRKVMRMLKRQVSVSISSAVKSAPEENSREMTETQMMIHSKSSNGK

[13] = Dose-response inhibition of insulin secretion in a rat insulinoma line at 5 mM glucose (AID 1117331); type: functional, cell-based; details: INS-1E

SMILES: Cc1cccc(OCCn2c(=S)[nH]c3cc(C(F)(F)F)ccc32)c1
AC50 [1]: 36 µM (active)

SMILES: CO[C@@H]1CN(C)C(=O)c2ccc(NC(=O)NC(C)C)cc2OC[C@@H](C)N(Cc2ccccc2)C[C@H]1C
AC50 [2]: 1.78 µM (active) | AC50 [3]: > 100 µM (inactive) | AC50 [4]: 1.9 µM (active) | AC50 [5]: 0.493 µM (active) | AC50 [6]: 1.4 µM (active) | AC50 [7]: 5.13 µM (active) | AC50 [8]: 0.299 µM (active)

SMILES: O=C(NCc1ccccn1)c1cccn1-c1ncc(C(F)(F)F)cc1Cl
IC50 [9]: 9.98 µM (active) | IC50 [10]: 9.96 µM (active)

SMILES: O=C1Nc2ccc(F)cc2/C1=C1/Nc2ccccc2/C1=N\OCCN1CCNCC1
IC50 (Danio rerio): 13.1 µM (not active)

SMILES: Cc1ccc(O)c([C@H](CCN(C(C)C)C(C)C)c2ccccc2)c1 [TOLTERODINE]
IC50 [13]: > 33.3 µM (inactive)

Further lines, results first:

IC50 [11]: 2.9 µM (active)
SMILES: O=C(CN1C(=O)NC2(CCCC2)C1=O)Nc1nc(-c2ccc(F)cc2)cs1

IC50 (NADPH oxidase 1): 0.561 µM (active)
SMILES: CC(=NNc1ccc(C(=O)O)cc1)c1ccc2c(c1)Nc1ccccc1S2

IC50 (14-3-3 protein gamma): > 50 µM (not active)
SMILES: Cc1ccc(-n2c(=O)[nH]cc(C(=O)Nc3ccc4c(c3)OCCO4)c2=O)cc1C

IC50 [12]: 0.0212 µM (active)
SMILES: O=C(/C=C/c1ccc(F)cc1)N1CCN(S(=O)(=O)c2ccc3ccccc3c2)CC1
